Active and inactive are the calls of the source. No cut-off for these calls is given here.
Tests used:
[1] = tested on: CWR22R; assay: Effect on AR-V7 protein expression in AR-positive human 22Rv1 cells harboring ARE14 construct at 5 uM after 24 hrs by immunoblot analysis; format: functional, cell-based
[2] = tested on: CWR22R; assay: Antiproliferative activity against AR-positive human 22Rv1 cells harboring ARE14 construct assessed as growth inhibition after 72 hrs by resazurin dye based fluorescence assay; format: functional; conditions: 22Rv1, 72 h
[3] = tested on: BJ; assay: Antiproliferative activity against human BJ cells assessed as growth inhibition after 24 hrs by resazurin dye based fluorescence assay; format: functional
[4] = tested on: VCaP; assay: Antiproliferative activity against AR-positive human VCaP cells assessed as growth inhibition after 72 hrs by resazurin dye based fluorescence assay; format: functional
[5] = tested on: LNCaP C4-2; assay: Antiproliferative activity against AR-positive human C4-2 cells assessed as growth inhibition after 72 hrs by resazurin dye based fluorescence assay; format: functional; conditions: LNCaP C4-2, 72 h
[6] = biological target: T1, Androgen receptor (Homo sapiens) (UniProt P10275); assay: Inhibition of AR transcriptional activity in AR-positive human 22Rv1 cells harboring ARE14 construct assessed as decrease in PSA protein expression at 5 uM after 24 hrs by immunoblot analysis
T1 sequence (whole entry): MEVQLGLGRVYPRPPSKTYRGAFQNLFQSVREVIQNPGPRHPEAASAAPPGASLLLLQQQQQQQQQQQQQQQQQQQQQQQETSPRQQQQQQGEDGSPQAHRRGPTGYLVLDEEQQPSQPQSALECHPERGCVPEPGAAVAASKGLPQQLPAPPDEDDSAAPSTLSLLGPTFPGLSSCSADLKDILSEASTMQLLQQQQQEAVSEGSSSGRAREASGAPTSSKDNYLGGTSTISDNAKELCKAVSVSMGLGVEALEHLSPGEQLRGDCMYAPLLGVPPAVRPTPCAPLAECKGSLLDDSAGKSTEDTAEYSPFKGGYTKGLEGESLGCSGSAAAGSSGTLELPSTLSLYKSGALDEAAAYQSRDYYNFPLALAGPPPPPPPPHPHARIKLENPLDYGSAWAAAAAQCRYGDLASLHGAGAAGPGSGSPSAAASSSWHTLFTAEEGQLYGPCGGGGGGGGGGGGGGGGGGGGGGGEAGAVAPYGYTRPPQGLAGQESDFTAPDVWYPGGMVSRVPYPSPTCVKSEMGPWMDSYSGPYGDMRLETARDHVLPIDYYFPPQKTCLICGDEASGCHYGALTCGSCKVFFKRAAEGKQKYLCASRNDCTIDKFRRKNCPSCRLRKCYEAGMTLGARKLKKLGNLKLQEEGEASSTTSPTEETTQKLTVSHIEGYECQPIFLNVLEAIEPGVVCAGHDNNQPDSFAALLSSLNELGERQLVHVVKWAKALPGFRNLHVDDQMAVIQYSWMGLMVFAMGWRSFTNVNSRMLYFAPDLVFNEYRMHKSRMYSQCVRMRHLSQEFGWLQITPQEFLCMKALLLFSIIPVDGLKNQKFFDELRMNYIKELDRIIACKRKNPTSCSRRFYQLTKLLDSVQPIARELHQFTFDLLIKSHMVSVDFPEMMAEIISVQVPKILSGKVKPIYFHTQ

[7] = tested on: CWR22R; assay: Antiproliferative activity against AR-positive human 22Rv1 cells harboring ARE14 construct assessed as growth inhibition after 24 hrs by resazurin dye based fluorescence assay; format: functional; conditions: 22Rv1, 24 h
[8] = tested on: PC-3; assay: Antiproliferative activity against AR-negative human PC3 cells assessed as growth inhibition after 72 hrs by resazurin dye based fluorescence assay; format: functional; conditions: PC-3, 72 h
[9] = biological target: T1, Androgen receptor (Homo sapiens); assay: Inhibition of AR transcriptional activity in AR-positive human 22Rv1 cells harboring ARE14 construct assessed as downregulation of NKX3.1 protein expression at 5 uM after 24 hrs by immunoblot analysis
[10] = tested on: VCaP; assay: Antiproliferative activity against AR-positive human VCaP cells assessed as cell viability at 40 uM after 72 hrs by resazurin dye based fluorescence assay; format: functional; conditions: read-out: Activity
[11] = tested on: LNCaP C4-2; assay: Antiproliferative activity against AR-positive human C4-2 cells assessed as cell viability at 40 uM after 72 hrs by resazurin dye based fluorescence assay; format: functional; conditions: LNCaP C4-2, 72 h, read-out: Activity

Structure (SMILES)	Activity [1]	GI50 [2]	GI50 [3]	GI50 [4]	GI50 [5]	PSA protein decrease (active/not active) [6]	GI50 [7]	GI50 [8]	NKX3.1 protein downregulation (active/not active) [9]	viability at 40 µM [10]	viability at 40 µM [11]
CC(=O)O[C@H]1CC[C@@]2(C)C(=CC[C@@H]3[C@@H]2CC[C@]2(C)c4c(C)nc5nc6cc(Cl)ccc6n5c4C[C@@H]32)C1	inactive	> 50 µM	> 50 µM	> 50 µM	> 50 µM	inactive	> 50 µM	> 50 µM	inactive		
CC(=O)O[C@H]1CC[C@@]2(C)C(=CC[C@@H]3[C@@H]2CC[C@@]2(C)[C@H]3C[C@@H]3C(=O)[C@@]2(C)Nc2nc4ccccc4n23)C1	inactive	5.4 µM	> 50 µM	> 50 µM	18 µM	inactive	> 50 µM	> 50 µM	inactive		
CC(=O)O[C@H]1CC[C@@]2(C)C(=CC[C@@H]3[C@@H]2CC[C@]2(C)c4c(C)nc5nc6ccccc6n5c4C[C@@H]32)C1	inactive	7.2 µM	44.9 µM	> 50 µM	22.5 µM	inactive	> 50 µM	> 50 µM	inactive		
C[C@]12CC[C@H](O)CC1=CC[C@@H]1[C@@H]2CC[C@]2(C)/C(=N/n3cnc4ccccc43)CC[C@@H]12	inactive	> 50 µM	> 50 µM	> 50 µM	> 50 µM	inactive	> 50 µM	11.5 µM	inactive		
CC(=O)O[C@H]1CC[C@@]2(C)C(=CC[C@H]3[C@@H]4C[C@@H](Nc5nc6ccccc6s5)[C@H](C(C)=O)[C@@]4(C)CC[C@@H]32)C1	inactive	13.2 µM	> 50 µM	> 50 µM	34.1 µM	inactive	> 50 µM	> 50 µM	inactive		
COc1ccc2c(C)c3c(nc2n1)C[C@H]1[C@@H]2CC=C4C[C@@H](O)CC[C@]4(C)[C@H]2CC[C@]31C	inactive	4.3 µM	> 50 µM	> 50 µM	1.1 µM	Active	> 50 µM	> 50 µM	Active		
CC(=O)O[C@H]1CC[C@@]2(C)C(=CC[C@@H]3[C@@H]2CC[C@@]2(C)[C@H]3C[C@@H]3C(=O)[C@@]2(C)Nc2nc4ccc(Cl)cc4n23)C1		> 50 µM			> 50 µM			> 50 µM			
CC(=O)O[C@H]1CC[C@@]2(C)C(=CC[C@@H]3[C@@H]2CC[C@@]2(C)[C@H]3C[C@@H]3C(=O)[C@@]2(C)Nc2nc4cc(Cl)ccc4n23)C1		> 50 µM			> 50 µM			> 50 µM			
C[C@]12CC[C@H](O)CC1=CC[C@@H]1[C@@H]2CC[C@]2(C)C(n3cnc4ccccc43)=CC[C@@H]12 [GALETERONE]		37.8 µM		> 40 µM	> 40 µM			37.7 µM		57.2%	74.3%
CC(=O)O[C@H]1CC[C@@]2(C)C(=CC[C@@H]3[C@@H]2CC[C@]2(C)c4c(C)nc5nc6cc(C)c(C)cc6n5c4C[C@@H]32)C1	inactive	40 µM	> 50 µM	> 50 µM	36.5 µM	inactive	> 50 µM	> 50 µM	inactive		
CC(=O)O[C@H]1CC[C@@]2(C)C(=CC[C@@H]3[C@@H]2CC[C@]2(C)c4c(C)nc5nccn5c4C[C@@H]32)C1	inactive	26.3 µM	> 50 µM	> 50 µM	> 50 µM	inactive	> 50 µM	> 50 µM	inactive		
CC(=O)O[C@H]1CC[C@@]2(C)C(=CC[C@@H]3[C@@H]2CC[C@]2(C)c4c(C)nc5c(c4C[C@@H]32)c2ccccc2n5C)C1	inactive	> 50 µM	> 50 µM	> 50 µM	> 50 µM	inactive	> 50 µM	> 50 µM	inactive		
Cc1nc(N2CCc3ccccc3C2)nc2c1[C@@]1(C)CC[C@H]3[C@@H](CC=C4C[C@@H](O)CC[C@@]43C)[C@@H]1C2	inactive	12.4 µM	22.5 µM	20.7 µM	12.7 µM		> 50 µM	7.8 µM	Active		
CC(=O)O[C@H]1CC[C@@]2(C)C(=CC[C@@H]3[C@@H]2CC[C@]2(C)c4c(C)nc5nc6ccc(Cl)cc6n5c4C[C@@H]32)C1	inactive	29.9 µM	50 µM	> 50 µM	24.4 µM	inactive	> 50 µM	> 50 µM	inactive		
CC(=O)O[C@H]1CC[C@@]2(C)C(=CC[C@H]3[C@@H]4C[C@@H](Nc5nc6ccccc6[nH]5)[C@@H](C(C)=O)[C@@]4(C)CC[C@@H]32)C1	inactive	6.2 µM	48.3 µM	20.3 µM	11.9 µM	inactive	> 50 µM	29.5 µM	inactive		
CC(=O)O[C@H]1CC[C@@]2(C)C(=CC[C@@H]3[C@@H]2CC[C@@]2(C)[C@H]3C[C@@H]3C(=O)[C@@]2(C)Nc2nc4cc(C)c(C)cc4n23)C1	inactive	7.4 µM	> 50 µM	> 50 µM	> 50 µM	inactive	> 50 µM	> 50 µM	inactive		

Reference: ChEMBL document CHEMBL4351016 (Eur J Med Chem, 2019)
